Reference: patent US20250161184A1, “NOVEL USE” (DSM IP Assets B.V., priority 2022, published 2025)
“Also recorded” adds a separate entry of the source.

Tested on: Normal human dermal fibroblasts
Test: in vitro dermal fibroblast collagen assay (collagen 1 immunolabeling, flow cytometry)
Format: cell-based
Settings: for Collagen 1 expression relative to untreated (%): 72 hours treatment, mean, n = 4, untreated = 100%; for effect on collagen type 1 (result in words): normal human dermal fibroblasts, 72 hours, several concentrations
Procedure: The neutral core human milk oligosaccharides LNT and LNnT were evaluated for their effect on collagen type 1. This was done using an in vitro dermal fibroblast collagen assay. […] For comparative reasons, also another human milk oligosaccharide was tested, i.e. 6′-silalyllactose (6′SL).
Normal human dermal fibroblasts were seeded in cell culture medium (Dulbecco's Modified Eagle Medium supplemented with 10% serum and 1% antibiotics) and allowed to adhere in a humidified cell incubator maintaining 37° C. and 5% CO2. Afterwards, the cells were starved with culture medium without serum for 16-24 hours to synchronize the cells their cell cycle. The starvation medium was removed and cell culture medium+LNT or LNnT respectively 6′SL at various concentrations was added to the cells. The cells were treated for 72 hours. The cells were then fixated and immunolabeled with antibodies specific for collagen 1. These labeled cells were analyzed using flow cytometry and compared to the untreated ones (medium without LNT respectively LNnT or 6′SL).

Row | SMILES | Collagen 1 expression relative to untreated (%) (0.05 μM) | Collagen 1 expression relative to untreated (%) (0.10 μM) | Collagen 1 expression relative to untreated (%) (1.00 μM) | Collagen 1 expression relative to untreated (%) (50 μM) | Collagen 1 expression relative to untreated (%) (100 μM) | effect on collagen type 1 (result in words) | Collagen 1 expression relative to untreated (%) (0.50 μM)
1 | CC(=O)N[C@H]1[C@H](O[C@H]2[C@@H](O)[C@@H](CO)O[C@@H](O[C@H]3[C@H](O)[C@@H](O)C(O)O[C@@H]3CO)[C@@H]2O)O[C@H](CO)[C@@H](O[C@@H]2O[C@H](CO)[C@H](O)[C@H](O)[C@H]2O)[C@@H]1O (mixture of isomers) [LNnT, lacto-N-neotetraose] | 117 | 129 | 167 | 172 | 177 | most active in inducing collagen synthesis; also recorded: increase collagen expression | 
2 | CC(=O)N[C@H]1[C@H]([C@H](O)[C@H](O)CO)O[C@@](OC[C@H]2O[C@@H](O[C@H]3[C@H](O)[C@@H](O)[C@H](O)O[C@@H]3CO)[C@H](O)[C@@H](O)[C@H]2O)(C(=O)O)C[C@@H]1O [6′SL, 6′-silalyllactose, reference compound] |  | 103 | 121 | 100 |  | much smaller effect | 
3 | CC(=O)N[C@H]1[C@H](O[C@H]2[C@@H](O)[C@@H](CO)O[C@@H](O[C@H]3[C@H](O)[C@@H](O)C(O)O[C@@H]3CO)[C@@H]2O)O[C@H](CO)[C@@H](O)[C@@H]1O[C@@H]1O[C@H](CO)[C@H](O)[C@H](O)[C@H]1O (stereo partly drawn) [LNT, lacto-N-tetraose] |  |  | 159 | 164 | 163 | increase collagen expression | 139
